Legend:
MYCN G4 DNA [1] = test: DMS footprinting of 5′Cy5-labeled MYCN G4 DNA; format: binding, human
Description: DMS footprinting. Footprinting of 5′Cy5-labelled DNA was performed as described in the literature (Zhang et al., JACS 2014, 136:1381-1390; Li et al., PNAS 2015, 112:14581-14586). […] Then, DNA solutions were diluted to 50 nM in corresponding buffers (2 mL final volume in each tube) and compound stock solutions (in DMSO) were added resulting in solutions with designed concentrations (resulting in 5% DMSO). After incubation for 30 min, the folded DNA samples were treated with 0.5% DMS for 10 min at RT and the reaction was stopped by adding 200 μL stop buffer (2.5 M NH4OAc, 0.1 M β-mercaptoethanol, 1 mg/mL calf thymus DNA). After phenol/chloroform/isoamyl alcohol extraction and ethanol precipitation, the DNAs were dissolved in 50 μL of nuclease free water. An equal volume of 10% piperidine was added to each tube, and the mixed solutions were heated at 90° C. for 30 min, followed by quick chilling on ice. The DNAs were again subjected to phenol/chloroform/isoamyl alcohol extraction and ethanol precipitation. The precipitated DNAs were dissolved in 10 μL of nuclease free water, denatured at 95° C. for 5 min, and resolved on a 17% denaturing polyacrylamide gel. After gel running, Cy5-labeled DNA fragments were visualized on a Typhoon Imager (Amersham) and digitized using Image J software.
In this example, DMS-footprinting was conducted by using 5′-Cy5-labeled MYCN hairpin-G4 DNA. […]

dsDNA = test: CD melting test of dsDNA; format: binding; conditions: CD melting of dsDNA with compound
[2] = target: mutated/truncated MYCN G4 DNA; test: FIA titration with mutated long loop and truncated (no hairpin) MYCN G4 DNAs; format: binding, human
Description: (§1) Fluorescence intensity assay. In this disclosure, fluorescence intensity assay (FIA) was used for both validation of hit binding at a single dose and binding affinity determination. For validating hit compounds from SMM screening, 100 μM solution of each compound was prepared in triplicate in a 96 well-plate (Costar, black side clear bottom), resulting in 5% DMSO concentration. 5′Cy5-labeled MYCN G4 DNA was annealed as described above, then added into the well plate resulting in a final concentration of 100 nM. The plate was incubated shaking for 30 min, followed by centrifuging at 500 rpm for 2 minutes. The fluorescence intensity was then measured on a Synergy Mx microplate reader (BioTek) at Ex 649 nm/Em 670 nm. TMPyP4/DMSO were used as positive and negative controls, respectively. In certain examples, compounds were considered binders when a change of >10% change in fluorescence intensity was observed compared to that of negative control (DMSO solution). For binding affinity measurement, small molecule solutions were prepared as serial dilutions in DMSO. Then a final test plate was prepared by adding 5 μL small molecule solutions and 10 μL annealed DNA samples into 85 μL buffer solutions, resulting in the final small molecule concentrations from 0 to 250 μM (5% final DMSO concentration). The fluorescence intensities were normalized, and the binding affinity was calculated by fitting the curve using one-site total model in GraphPad Prism 8.3.1 software. The fluorescence titration using 3′-labeled oligonucleotides was also performed the same way.
To further understand the binding details between compound MY-1 and MYCN G4, a series of FIA studies were designed and performed. […] After incubating 100 μM MY-1 with labeled DNA samples, fluorescence intensities were measured and compared to DMSO controls. Fluorescence of the A11 2-AP DNA sample was quenched by almost 100%, while the quenching percentages were 80% and 70% for A18 and A24 2-AP DNAs, respectively (FIG. 24B, FIGS. 25A-25C). […]

MYCN G4 DNA [3] = test: Fluorescence intensity assay (FIA) with 5′Cy5-labeled MYCN G4 DNA; format: binding, human; conditions: for Kd: 5′Cy5-labeled MYCN G4 titrated with compound; for positive binding in FIA (>10% quenching): single concentration 100 μM compound, 5′Cy5-MYCN G4
Description: as §1

[4] = target: MYCN G4 DNA (2-AP at A11); test: 2-Aminopurine (2-AP) fluorescence titration, A11-labeled MYCN G4; format: binding, human; conditions: 2-AP at A11 of MYCN G4
Description: 2-Aminopurine (2-AP) fluorescence titration. Fluorescence titrations based on 2-aminopurine labeling were performed using the protocol reported previously. Briefly, MYCN G4 oligonucleotide with a 2-AP substitution at either A11 or A18 position was annealed by heating the sample to 95° C. for 5 min and cooling down to RT slowly. The oligonucleotide with folded structure was diluted to 10 μM in Tris buffer (10 mM Tris, pH7.0, 100 mM KCl, 0.005% Tween 20) and prepared in a black 96-well plate (Costar) in triplicate as designed. Small molecules were diluted in DMSO to obtain a series of solutions with concentrations ranging from 0.1 to 5 mM, and then diluted by 20 times added into the plate (5% DMSO final concentration). The final concentration of 2-AP DNA was 1 μM in the well plate. To obtain the background fluorescence, small molecule solutions without DNA were also prepared in the same plate. After incubation for 30 min at RT, the plate was briefly centrifuged and scanned in Synergy Mx microplate reader (BioTek) with Ex 310 nm/Em 365 nm. Fluorescence signals were calculated by averaging the intensities in triplicate wells after subtracting the references. Finally, the binding signals were normalized and the KD value was determined by fitting the curve using a nonlinear sigmoidal dose-response model with a variable slope in GraphPad Prism 8.3.1 software.

| Kd [4] [µM] | Kd ([2]; 5′-Cy5 labeled constructs without hairpin, read-out: binding affinity to mutated long loop and truncated MYCN G4 DNAs) [µM] | fold weaker binding than wild type MYCN G4 ([2]; mutated/truncated vs wild type) [fold] | A11 2AP KD [4] | SMILES | protection of guanines from DMS (MYCN G4 DNA [1]; 10 mM LiCl + 10 mM NaCl Tris buffer, 0-100 nM compound) | effect on dsDNA melting (dsDNA) | binding affinity to mutated long loop and truncated MYCN G4 DNAs ([2]; 5′-Cy5 labeled constructs without hairpin) | Kd (MYCN G4 DNA [3]) [µM] | positive binding in FIA (>10% quenching) (MYCN G4 DNA [3]) | protection of guanines from DMS (MYCN G4 DNA [1]; 5 mM KCl buffer, compound at concentrations according to KD) |
| --- | --- | --- | --- | --- | --- | --- | --- | --- | --- | --- |
| – | – | – | – | COc1ccc(-c2noc(-c3ccc(NCCCNc4c5ccc(Cl)cc5nc5ccc(OC)cc45)nn3)n2)cc1 [B33, N^1-(6-chloro-2-methoxyacridin-9-yl)-N^3-(6-(3-(4-methoxyphenyl)-1,2,4-oxadiazol-5-yl)pyridazin-3-yl)propane-1,3-diamine] | protection of G2-9, G10-12, and G17-21 | – | – | – | – | – |
| – | – | – | – | CCCN1CCN(c2nnc(-n3cccc3CNCCCN3CCCCCC3)s2)CC1 [Compound 1] | – | Neither of the compounds showed a measurable effect | comparable to wild type | 20.8 ± 2.2 | hits | – |
| 3.2 ± 0.6 | > 100 | ~30 | – | COc1ccc(-c2noc(-c3ccc(NCCCN4CCCC4)nn3)n2)cc1 [MY-1, 6-(3-(4-methoxyphenyl)-1,2,4-oxadiazol-5-yl)-N-(3-(pyrrolidin-1-yl)propyl)pyridazin-3-amine] | – | Neither of the compounds showed a measurable effect | – | 3.5 ± 1.6 | hits | G8, G9, G16, G17 were protected considerably, while G13-G15 were slightly protected |
| 0.6 ± 0.2 | – | – | sub-micromolar binders | COc1ccc(-c2noc(-c3ccc(NCCCN4CCCCCC4)nn3)n2)cc1 [MY-8, N-(3-(azepan-1-yl)propyl)-6-(3-(4-methoxyphenyl)-1,2,4-oxadiazol-5-yl)pyridazin-3-amine] | – | – | – | – | – | – |

— patent publication US20240287054A1, “COMPOUNDS THAT BIND NON-CANONICAL G-QUADRUPLEX STRUCTURES AND METHODS OF MAKING AND USING THE SAME” (The U.S.A., as Represented by the Secretary, Department of …, priority 2021, published 2024)
